Patent EP0171342A1, “Substituted 2-(1-amino-akylidenyl)1,3-indane diones, process for their preparation and their therapeutical use” (priority 1984, dated 1986)
≈ marks a conversion by molar mass, not a printed value. Where two headings read alike, the source gives them in different places.

Legend:
[1] = test system: souris; assay: Acute toxicity (mortality, LD50) in mice; format: in vivo; settings: mouse
[2] = test system: souris; assay: Anticonvulsant activity: bicuculline-induced convulsions in mice; format: in vivo; settings: mouse, i.p., 100 mg/kg
Protocol: L'activité anticonvulsivante est également déterminée dans le test des inhibitions des convulsions induites par la bicuculline. Des souris reçoivent par voie intrapéritonéale le produit à tester, puis 30 mn et 5 heures plus tard, deux injections séparées de 0,5 mg de bicuculline. […] Les résultats de ce test sont le reflet d'une activité gabaergique directe.

[3] = test system: rat soumis à une surcharge hydrique; assay: Diuretic activity in rats given a water overload, oral; format: in vivo; settings: rat, water overload, oral; for response vs control in vivo at 20 mg/kg: read-out: facteur multipliant l'excrétion urinaire du sodium
Protocol: (§1) L'activité diurétique a été déterminée sur plusieurs modèles expérimentaux. Chez le rat soumis à une surcharge hydrique, administrés par voie orale à la dose de 20 mg/kg, le COR3760, le COR3789, le COR3792, le COR4002, le COR4003, le COR4009, le COR4010, le COR4012 et le COR4014 multiplient l'excrétion urinaire du sodium par respectivement un facteur 2,9 - 3,1 - 5,9 - 2,6 - 7,2 - 3,5 - 3,8 - 2,9 - 2,4. Administrés à la dose de 10 mg/kg, dans les mêmes conditions, les COR3760, COR3789, COR3792, COR4003 et COR4010 multiplient l'excrétion sodique par respectivement 2,3 - 2,9 - 2,8 - 2,4 et 2,5. La spironolactone multiplie quant à elle l'excrétion sodique d'un facteur 3,6 à la dose de 20 mg/kg. Administré à la dose de 5 mg/kg dans les mêmes conditions, le COR3792 multiplie l'excrétion sodique par 3,3. Administré par voie orale chez le rat ou la souris soumis à une surcharge saline, le COR3760 augmente l'excrétion urinaire volumétrique mesurée à la sixième heure de respectivement 49, 119 et 134% chez la souris et 28, 84 et 116% chez le rat après administration de 10, 20, et 40 mg/kg. Le COR3760 a été administré par voie orale au rat soumis à une surcharge hydrique et l'excrétion urinaire volumétrique, le sodium et le potassium excrétés ont été mesurés sur une période de 6 heures; ces paramètres ont varié de respectivement +17%, +102%, +165% à 10 mg/kg, +19%, +147%, +180% à 20 mg/kg et +36%, +415% et +239% à 40 mg/kg; le rapport Na/K passe de 0,56 chez les animaux témoins à 0,4 à 10 mg/kg, 0,49 à 20 mg/kg et 0, 8 à 40 mg/ kg. Au cours d'une seconde expérimentation, le COR3760 a entrainé des variations de +19%, +157%, +70% à 40 mg/kg, +19%, +319%, +90% à 60 mg/kg et +29%, +472% et +77% à 80 mg/kg; le rapport Na/K passe de 0,59 chez les animaux témoins à 0,88 à 40, 1,15 à 60 et 1,88 à 80 mg/kg.

[4] = test system: rat Wistar soumis à une surcharge saline; assay: Diuretic activity in selected Wistar rats given a saline overload (modified Wiebelhaus test); format: in vivo
Protocol: L'activité diurétique des produits selon l'invention a été également déterminée chez le rat Wistar soumis à une surcharge saline selon une modification du test décrit par Wiebelhaus et coll., Fed. Proc., 1960, 19, 364, en procédant à une sélection des animaux. A la dose de 20 mg/kg, les COR4003, COR4008, COR4009, COR4010, COR4011, COR4012, COR4014, COR4016, COR4021, COR4025 augmentent l'excrétion urinaire volumétrique mesurée au bout de 6 heures de respectivement 56, 54, 65, 95, 73, 54, 33, 40, 99 et 92 %. L'excrétion urinaire du sodium augmente de respectivement 56, 24, 42, 59, 43, 33, 29, 43, 31, 83, 26, 99, 40 % toujours à cette dose pour les COR4003, COR4008, COR4009, COR4010, COR4011, COR4012, COR4014, COR4016, COR4017, COR4021, COR4023, COR4025 et COR4026. Le rapport Na/K demeure la plupart du temps inchangé. Testé dans les mêmes conditions le furosémide, administré à la dose de 20 mg/kg entraine 63% d'augmentation de l'excrétion urinaire volumétrique et 53% d'augmentation de l'excrétion urinaire du sodium.

[5] = test system: souris; assay: Anticonvulsant activity: maximal electroshock convulsions in mice; format: in vivo; settings: mouse, oral, 100 mg/kg, one hour after administration
Text: L'activité anticonvulsivante est appréciée dans le test de la prévention des convulsions induites par des électrochocs d'intensité maximale.

[6] = test system: rat vigile spontanément hypertendu; assay: Antihypertensive activity in conscious spontaneously hypertensive rats (indirect tail pressure); format: in vivo; settings: SHR, oral, 100 mg/kg
Protocol: L'activité antihypertensive a été appréciée chez le rat vigile spontanément hypertendu. La pression artérielle est mesurée de façon indirecte sur la queue 2, 4, 6 heures après l'administration par voie orale du produit à tester. Pour le COR4009, administré à la dose de 100 mg/kg, la réduction de pression est respectivement de 8, 13, 13% à ces échéances.

[7] = test system: oreillette gauche de cobaye; assay: Calcium antagonist activity: electrically stimulated guinea pig left atrium; settings: 150 beats/min, low-calcium (0,6 mM) Tyrode solution; read-out: concentration qui inhibe de 50% l'augmentation de la force de contraction induite par l'addition de 0,6 mM de calcium
Protocol: L'activité anticalcique a été déterminée in vitro sur deux modèles expérimentaux.
Sur oreillette gauche de cobaye stimulée électriquement à 150 battements/mn dans une solution de Tyrode pauvre en calcium (0,6 mM), les COR3789, COR3792, COR4009, COR4010 et COR4011 employés respectivement à 25, 100, 50, 10 et 25 microg/ml inhibent de 50% l'augmentation de la force de contraction induite par l'addition de 0,6 mM de calcium.

[8] = Acute toxicity (mortality, LD50) in mice; format: in vivo; settings: in vivo; mouse, oral, in solution in Tween 20%; read-out: DL50 (the source's name)
[9] = test system: souris soumis à une surcharge saline; assay: Diuretic activity in mice given a saline overload, oral; format: in vivo; settings: mouse
Protocol: as §1

[10] = test system: souris; assay: Antidepressant activity: inhibition of reserpine-induced ptosis in mice; format: in vivo; settings: mouse, oral 200 mg/kg 90 min before reserpine 5 mg/kg i.p.; index 0 (maximum ptosis) to 6 (no ptosis)
Protocol: (§2) L'activité antidépressive a été déterminée dans le test de potentialisation de la toxicité de la yohimbine et dans le test de l'inhibition du ptosis induit par la réserpine.
(§3) On injecte par voie sous cutanée à des souris, lh avant l'administration par voie orale du produit à tester, une dose non léthale de yohimbine soit 15 mg/kg. Le COR3760 administré à la dose de 100 mg/kg entraine 80% de mortalité dans ces conditions. Des souris reçoivent par voie orale le produit à tester 90 mn avant l'injection par voie intrapéritonéale de 5 mg/kg de réserpine solubilisée. On cote le ptosis selon un index allant de 0 à 6, la cote 0 correspondant à un ptosis maximum et la cote 6 à l'absence de ptosis. Les COR3760 et COR4011 conduisent dans les conditions de l'expérience à un ptosis coté à 4 pour une dose de respectivement 200 et 50 mg/kg.

[11] = test system: souris; assay: Antidepressant activity: potentiation of yohimbine toxicity in mice; format: in vivo; settings: mouse, yohimbine 15 mg/kg s.c. (non-lethal dose), test product oral 100 mg/kg
Protocol: as §2, §3

[12] = test system: rat soumis à une surcharge saline; assay: Diuretic activity in rats given a saline overload, oral; format: in vivo
Protocol: as §1

[13] = test system: segments d'iléon de cobaye isolés; assay: Anticholinergic activity: acetylcholine-induced contractions of isolated guinea pig ileum; settings: Cavia porcellus; contractions induced by 0,1 microg/ml acetylcholine; read-out: concentration qui inhibe ces contractions de 80%
Text: L'activité anticholinergique a été appréciée par la mesure des contractions induites par 0,1 microg/ml d'acétylcholine sur des segments d'iléon de cobaye isolés. Les COR3760, COR3789, COR3792, COR4003, COR4008, COR4010, COR4014 utilisés respectivement aux concentrations de 50, 25, 25, 50, 25, 10, 25 microg/ml inhibent ces contractions de 80%.

[14] = test system: poumon de cobaye isolé perfusé; assay: Bronchodilator activity: isolated perfused guinea pig lung contracted by methacholine; settings: flow of Tyrode solution, lung contracted by 0,05 microg/ml methacholine; read-out: concentration qui augmente ce débit de 50%
Text: L'activité bronchodilatatrice a été déterminée in vitro par la mesure du débit d'une solution de Tyrode à travers un poumon de cobaye isolé perfusé, contracté par l'addition au fluide de perfusion de 0,05 microg/ml de méthacholine. Les COR3760, COR3789, COR3792, COR4003, COR4008, COR4010 et COR4014 utilisés respectivement aux concentrations de 50, 50, 100, 10, 50, 50 et 10 microg/ml augmentent ce débit de 50%. L'aminophylline entraine cette même activité à la concentration de 100 microg/ml.

[15] = first experiment, 10 mg/kg, 6 hours
[16] = first experiment, 20 mg/kg, 6 hours
[17] = first experiment, 40 mg/kg, 6 hours

For COCCNC(C)=C1C(=O)c2ccccc2C1=O [COR4009, ((Méthoxy-2 éthyl) amino-1 éthylidényl)-2 indanedione-1,3], the mortalité ([1]; intraperitoneal, 200 mg/kg) was “aucune mortalité”, the mortalité ([1]; oral, 300 mg/kg) was “aucune mortalité” and the “inhibition des convulsions induites par la bicuculline” value ([2]; first bicuculline injection (30 min later)) was “inhibe les convulsions induites par la première injection”. For the same compound, the “inhibition des convulsions induites par la bicuculline” value ([2]; second bicuculline injection (5 hours later)) was “sans inhiber celles induites par la deuxième”, the response vs control in vivo at 20 mg/kg ([3]; 20 mg/kg) was 350% and the change in vivo at 20 mg/kg ([4]; 6 h, read-out: augmentation de l'excrétion urinaire volumétrique mesurée au bout de 6 heures) was 65%. For the same compound, the change in vivo at 20 mg/kg ([4]; read-out: augmentation de l'excrétion urinaire du sodium) was 42%, the “prévention des convulsions induites par des électrochocs d'intensité maximale” value [5] was “on n'observe plus de convulsions” and the réduction de pression ([6]; 2 hours after administration) was 8%. It also gave a réduction de pression ([6]; 4 hours after administration) of 13%, a réduction de pression ([6]; 6 hours after administration) of 13% and an IC50 [7] of 50 µg/mL (≈ 204 µM).
In the case of CNC(C)=C1C(=O)c2ccccc2C1=O [COR3760, (Méthylamino-1 éthylidène)-2 indanedione-1,3], the LD50 [8] is reported as 736 mg/kg, the mortalité ([1]; intraperitoneal, 200 mg/kg) is reported as “aucune mortalité” and the mortalité ([1]; oral, 300 mg/kg) is reported as “aucune mortalité”. For the same compound, the “augmentation de l'excrétion urinaire volumétrique mesurée à la sixième heure” value ([9]; 10 mg/kg) was 49%, the “augmentation de l'excrétion urinaire volumétrique mesurée à la sixième heure” value ([9]; 20 mg/kg) was 119% and the “augmentation de l'excrétion urinaire volumétrique mesurée à la sixième heure” value ([9]; 40 mg/kg) was 134%. The “rapport Na/K” value ([3]; first experiment, 10 mg/kg (controls 0,56)) was 0,4, the “variation de l'excrétion urinaire volumétrique” value [3, 15] was “+17%” and the “variation du potassium excrété” value [3, 15] was “+165%”. The “variation du sodium excrété” value [3, 15] was “+102%”, the “rapport Na/K” value ([3]; first experiment, 20 mg/kg (controls 0,56)) was 0,49 and the “variation de l'excrétion urinaire volumétrique” value [3, 16] was “+19%”. The “variation du potassium excrété” value [3, 16] was “+180%”, the “variation du sodium excrété” value [3, 16] was “+147%” and the “variation de l'excrétion urinaire volumétrique” value [3, 17] was “+36%”. The “variation du potassium excrété” value [3, 17] was “+239%”, the “variation du sodium excrété” value [3, 17] was “+415%” and the “facteur multipliant l'excrétion sodique” value ([3]; 10 mg/kg) was 2,3. The response vs control in vivo at 20 mg/kg ([3]; 20 mg/kg) was 290%, the “variation de l'excrétion urinaire volumétrique” value ([3]; second experiment, 40 mg/kg) was “+19%” and the “variation du potassium excrété” value ([3]; second experiment, 40 mg/kg) was “+70%”. For the same compound, the “variation du sodium excrété” value ([3]; second experiment, 40 mg/kg) was “+157%”, the “rapport Na/K” value ([3]; second experiment, 40 mg/kg (controls 0,59)) was 0,88 and the “variation de l'excrétion urinaire volumétrique” value ([3]; second experiment, 60 mg/kg) was “+19%”. The “variation du potassium excrété” value ([3]; second experiment, 60 mg/kg) was “+90%”, the “variation du sodium excrété” value ([3]; second experiment, 60 mg/kg) was “+319%” and the “rapport Na/K” value ([3]; second experiment, 60 mg/kg (controls 0,59)) was 1,15. For the same compound, the “variation de l'excrétion urinaire volumétrique” value ([3]; second experiment, 80 mg/kg) was “+29%”, the “variation du potassium excrété” value ([3]; second experiment, 80 mg/kg) was “+77%” and the “variation du sodium excrété” value ([3]; second experiment, 80 mg/kg) was “+472%”. For the same compound, the “rapport Na/K” value ([3]; second experiment, 80 mg/kg (controls 0,59)) was 1,88, the “ptosis coté” value [10] was 4 and the mortalité [11] was 80%. For the same compound, the “augmentation de l'excrétion urinaire volumétrique mesurée à la sixième heure” value ([12]; 10 mg/kg) was 28%, the “augmentation de l'excrétion urinaire volumétrique mesurée à la sixième heure” value ([12]; 20 mg/kg) was 84% and the “augmentation de l'excrétion urinaire volumétrique mesurée à la sixième heure” value ([12]; 40 mg/kg) was 116%. For the same compound, the IC80 [13] was 50 µg/mL (≈ 248 µM) and the EC50 [14] was 50 µg/mL (≈ 248 µM).
